# In US20240335544A1, “M6PR CELL SURFACE RECEPTOR BINDING COMPOUNDS AND CONJUGATES” (LYCIA THERAPEUTICS, INC., priority 2021, published 2024):
# Entries after “also recorded” stand apart in the source; their conditions may differ. Where two headings read alike, the source gives them in different places.
# Experiments:
# CI-M6PR = CI-M6PR (Homo sapiens, UniProt P11717); test: Human CI-M6PR binding assay (ELISA); set-up: purchased R&D 6418-GR-050
# Procedure: Nunc black solid bottom MaxiSorp plates were allowed to incubate overnight at 4° C. coated with 1 μg/mL of recombinant human CI-M6PR protein (R&D, 6418-GR-050) in 50 μL PBS. The next day, coating was decanted and plates were washed 3× with PBS. Wells were blocked with 350 μL of 3% BSA-PBS for 1 hour at room temperature. […] 50 μL of diluted conjugates were added to the plate and allowed to incubate at room temperature for 2 hours. After incubation, solutions in plate were decanted and washed with 350 μL of 0.05% PBS-Tween20 three times, drying the plate each wash on a clean paper towel. 50 μL of peroxidase AffiniPure Mouse Anti-Human IgG (Jackson Immuno, 209-035-088) diluted in 3% BSA-PBS to […] was added to the plate and allowed to incubate for 1 hour at room temperature in the dark. After incubation, solutions in plate were decanted and washed with 350 μL of 0.05% PBS-Tween20 3 times, drying the plate each wash on a clean paper towel. […] 50 μL of QuantaBlu solution was added to wells and allowed to incubate for 5-10 minutes at room temperature. After incubation, plates were read on a Perkin Elmer EnVision using photometric 340 and Umbelliferone 460 filter sets for excitation and emission, respectively. Data analysis and non-linear curve-fitting was performed using GraphPad Prism.
# Jurkat cells = test: Uptake of IgE-Alexa488 target by omalizumab conjugates in Jurkat cells; assay type: cell-based; conditions: for relative cellular uptake activity of IgE-Alexa488, omalizumab conjugates of Table 15A / relative cellular uptake activity of IgE-Alexa488, omalizumab conjugates of Table 15B: 1 hour; for relative cellular uptake activity of IgE-Alexa488, omalizumab conjugates of Table 15A: FIGS. 15-17; for relative cellular uptake activity of IgE-Alexa488, omalizumab conjugates of Table 15B: FIGS. 18-21
# Procedure: The omalizumab conjugates of Example 142 were bound to IgE-Alexa488 (prepared according to Example 144), as follows: equal molar ratios of omalizumab (anti-IgE) conjugate and IgE-Alexa488 were added in tissue culture media for 30 minutes at room temperature. The resulting anti-IgE conjugate:IgE antibody-Alexa488 compositions were added to Jurkat cells (100 k cells/50 ul per well, n=2), and Alexa488 fluorescence levels in the cells were measured at 1 hour by flow cytometry. As the fluorescently labelled target (IgE antibody) accumulates in cells, the fluorescence presents a way to measure total intracellular uptake by cells over time.
# [1] = biological target: T1, M6PR (Domains I-9, R&D Systems) (Homo sapiens, UniProt P11717); test: General M6PR binding assay (fluorescence polarization); conditions: Table 16F, unconjugated compounds, 100 nM M6PR, 1 nM probe, 2 hr incubation
# T1 construct: with 100 nM M6PR (Domains I-9, R&D Systems) and 1 nM probe; purchased R&D Systems
# T1 sequence (P11717 41-1365 limits assumed): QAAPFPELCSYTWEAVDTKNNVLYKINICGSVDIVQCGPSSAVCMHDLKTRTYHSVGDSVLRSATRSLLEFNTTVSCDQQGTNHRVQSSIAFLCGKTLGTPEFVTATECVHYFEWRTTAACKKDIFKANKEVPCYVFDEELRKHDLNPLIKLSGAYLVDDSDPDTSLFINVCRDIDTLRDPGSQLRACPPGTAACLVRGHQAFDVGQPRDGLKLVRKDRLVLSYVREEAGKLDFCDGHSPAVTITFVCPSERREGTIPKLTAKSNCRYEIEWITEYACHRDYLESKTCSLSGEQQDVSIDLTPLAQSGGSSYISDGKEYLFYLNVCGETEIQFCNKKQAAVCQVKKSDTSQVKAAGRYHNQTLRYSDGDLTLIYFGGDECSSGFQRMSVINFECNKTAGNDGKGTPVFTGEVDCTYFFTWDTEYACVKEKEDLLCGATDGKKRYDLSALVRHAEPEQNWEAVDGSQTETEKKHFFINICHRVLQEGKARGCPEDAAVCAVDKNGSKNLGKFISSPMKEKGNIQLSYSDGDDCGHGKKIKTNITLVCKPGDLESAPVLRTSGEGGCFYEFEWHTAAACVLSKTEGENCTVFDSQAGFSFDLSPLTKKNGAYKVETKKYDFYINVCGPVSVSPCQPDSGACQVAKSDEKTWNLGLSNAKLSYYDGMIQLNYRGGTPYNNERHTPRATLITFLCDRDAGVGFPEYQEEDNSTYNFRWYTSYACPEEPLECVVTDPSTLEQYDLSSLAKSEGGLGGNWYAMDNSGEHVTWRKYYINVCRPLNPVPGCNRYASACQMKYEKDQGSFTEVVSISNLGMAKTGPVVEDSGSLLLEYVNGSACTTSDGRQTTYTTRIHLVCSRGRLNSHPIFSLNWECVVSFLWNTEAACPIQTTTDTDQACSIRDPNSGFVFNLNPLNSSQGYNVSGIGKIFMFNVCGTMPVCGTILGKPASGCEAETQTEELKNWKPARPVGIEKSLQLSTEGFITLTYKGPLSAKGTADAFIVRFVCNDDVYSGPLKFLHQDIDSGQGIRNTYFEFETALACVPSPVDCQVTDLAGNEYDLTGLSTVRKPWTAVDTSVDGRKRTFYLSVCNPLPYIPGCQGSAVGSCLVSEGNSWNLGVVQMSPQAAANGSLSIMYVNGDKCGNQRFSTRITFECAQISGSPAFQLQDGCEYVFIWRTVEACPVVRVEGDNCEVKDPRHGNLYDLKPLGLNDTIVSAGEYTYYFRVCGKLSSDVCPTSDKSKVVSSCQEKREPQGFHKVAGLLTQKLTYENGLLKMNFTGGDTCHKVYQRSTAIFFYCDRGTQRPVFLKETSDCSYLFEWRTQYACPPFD
# Procedure: M6PR binding was measured in black 96-well plates using a fluorescence polarization assay. A fluorescent probe consisting of a reference M6Pn ligand linked to Cy5 was synthesized. Test compounds were resuspended in DMSO and 3-fold serial dilutions were made at 100× final concentrations. Binding reactions were conducted in 100 μl final volume in 20 mM HEPES (pH 7.5) 100 mM NaCl 0.015% Tween-20 1% DMSO with 100 nM M6PR (Domains I-9, R&D Systems) and 1 nM probe. Fluorescence polarization was measured using Xex=620 nm, λem=688 nm on an Envision plate reader (Perkin Elmer) after 2 hr incubation time. Dose responses were conducted in duplicate and normalized to the response with DMSO (high) and 1 μM reference compound (low) on each plate. IC50 values were determined by fitting to 4-parameter curves in GraphPad Prism.
# [2] = Table 16D, conjugate, m average loading DAR 2, read-out: EC50 in M6PR binding assay for conjugates of compounds of varying multivalency
# Sequence of CI-M6PR (P11717 41-1365 limits assumed): as above
smiles,measurement,setting,value
Cc1cc(NC(=O)NCCCCc2cn(CCOCCOCCOCCOCCC(=O)Oc3c(F)c(F)c(F)c(F)c3F)nn2)ccc1O[C@H]1O[C@H](CCP(=O)(O)O)[C@@H](O)[C@H](O)[C@@H]1O [545 (I-87)],EC50,"CI-M6PR; Table 16C, cetuximab (anti-EGFR) conjugate, average loading DAR 9.2, read-out: EC50 in M6PR binding assay",0.3 nM
O=C(CCOCCOCCOCCOCCn1cc(CCCCNC(=S)Nc2ccc(O[C@H]3O[C@H](CCS(=O)(=O)O)[C@@H](O)[C@H](O)[C@@H]3O)cc2)nn1)Oc1c(F)c(F)c(F)c(F)c1F [556 (1-104)],"relative cellular uptake activity of IgE-Alexa488, omalizumab conjugates of Table 15A",Jurkat cells,low activity
O=C(CCOCCOCCOCCN(CCOCCOCCOCCn1cc(CCCCNC(=S)Nc2ccc(O[C@H]3O[C@H](CCP(=O)(O)O)[C@@H](O)[C@H](O)[C@@H]3O)cc2)nn1)CCOCCOCCOCCn1cc(CCCCNC(=S)Nc2ccc(O[C@H]3O[C@H](CCP(=O)(O)O)[C@@H](O)[C@H](O)[C@@H]3O)cc2)nn1)Oc1c(F)c(F)c(F)c(F)c1F [704 (I-40)],EC50,CI-M6PR; [2],0.66 nM
same,EC50,"CI-M6PR; Table 16D, conjugate, m average loading DAR 7, read-out: EC50 in M6PR binding assay for conjugates of compounds of varying multivalency",0.2 nM
O=C(CCCn1cc(CCCCNC(=S)Nc2ccc(O[C@H]3O[C@H](CCP(=O)(O)O)[C@@H](O)[C@H](O)[C@@H]3O)cc2)nn1)N[C@@H](CCCCn1cc(CCCCNC(=S)Nc2ccc(O[C@H]3O[C@H](CCP(=O)(O)O)[C@@H](O)[C@H](O)[C@@H]3O)cc2)nn1)C(=O)N[C@@H](CCCCn1cc(CCCCNC(=S)Nc2ccc(O[C@H]3O[C@H](CCP(=O)(O)O)[C@@H](O)[C@H](O)[C@@H]3O)cc2)nn1)C(=O)N[C@@H](CCCCn1cc(CCCCNC(=S)Nc2ccc(O[C@H]3O[C@H](CCP(=O)(O)O)[C@@H](O)[C@H](O)[C@@H]3O)cc2)nn1)C(=O)NCCOCCOCCOCCOCCC(=O)Oc1c(F)c(F)c(F)c(F)c1F [763 (I-52)],EC50,CI-M6PR; [2],0.3 nM
C#CCCCCNC(=O)Nc1ccc(O[C@H]2O[C@H](CCP(=O)(O)O)[C@@H](O)[C@H](O)[C@@H]2O)cc1 [Compound 38C],IC50,[1],100 to 500 nM
O=C(NCCCCc1cn(CCOCCOCCOCCOCCC(=O)Oc2c(F)c(F)c(F)c(F)c2F)nn1)Nc1ccc(S[C@H]2O[C@H](CCP(=O)(O)O)[C@@H](O)[C@H](O)[C@@H]2O)cc1 [Compound 552],"relative cellular uptake activity of IgE-Alexa488, omalizumab conjugates of Table 15B",Jurkat cells,comparable activity to an 0-glycoside (520 (I-7) with m=8); also recorded: more activity when at m=6 loading versus m=4 loading
same,"relative cellular uptake activity of IgE-Alexa488, omalizumab conjugates of Table 19","Jurkat cells; FIG. 23, entire dose response range",comparable by less activity that the conjugate of α-O-glycoside (529)
O=C(NCCCCc1cn(CCOCCOCCOCCOCCC(=O)Oc2c(F)c(F)cc(F)c2F)nn1)Nc1ccc(O[C@H]2O[C@H](CCP(=O)(O)O)[C@@H](O)[C@H](O)[C@@H]2O)cc1 [Compound 558],"relative cellular uptake activity of IgE-Alexa488, omalizumab conjugates of Table 15A",Jurkat cells,"active in this assay, although less active in comparison to the corresponding analog containing a phosphonate hydrophilic head group (529 (I-38))"
O=C(CCOCCOCCOCCOCCn1cc(CCCCNC(=S)Nc2ccc(O[C@H]3O[C@H](CC(C(=O)O)C(=O)O)[C@@H](O)[C@H](O)[C@@H]3O)cc2)nn1)Oc1c(F)c(F)c(F)c(F)c1F [Compound 559],EC50,"CI-M6PR; Table 16E, conjugate, m average DAR 9, read-out: EC50 in M6PR binding assay for conjugates of monovalent compounds of varying linker length and loading",3.36 nM
CO[C@H]1O[C@H](COCCCCCc2cn(CCOCCOCCOCCOCCC(=O)Oc3c(F)c(F)c(F)c(F)c3F)nn2)[C@@H](O)[C@H](O)[C@@H]1O[C@H]1O[C@H](CCP(=O)(O)O)[C@@H](O)[C@H](O)[C@@H]1O [Compound 659],"relative cellular uptake activity of IgE-Alexa488, omalizumab conjugates of Table 15B",Jurkat cells,potent and comparable activity to conjugate of a conjugate of compound 520 (I-7)
CO[C@H]1OC(c2cn(CCOCCOCCOCCOCCOCCOCCC(=O)Oc3c(F)c(F)c(F)c(F)c3F)nn2)[C@@H](O)[C@H](O)[C@@H]1O[C@H]1O[C@H](CCP(=O)(O)O)[C@@H](O)[C@H](O)[C@@H]1O (stereo partly drawn) [Compound 660],"relative cellular uptake activity of IgE-Alexa488, omalizumab conjugates of Table 15B",Jurkat cells,potent and comparable activity to conjugate of a conjugate of compound 520 (I-7)
O=C(CCOCCOCCOCCOCCOCCOCCOCCOCc1cn([C@H]2O[C@H](CCP(=O)(O)O)[C@@H](O)[C@H](O)[C@@H]2O)nn1)ON1C(=O)CCC1=O [Compound 664],"relative cellular uptake activity of IgE-Alexa488, omalizumab conjugates of Table 15B",Jurkat cells,minimal activity
O=C(NCCCCc1cn(CCOCCOCCOCCOCCC(=O)Oc2c(F)c(F)c(F)c(F)c2F)nn1)Nc1ccc(O[C@H]2C[C@H](CCP(=O)(O)O)[C@@H](O)[C@H](O)[C@@H]2O)cc1 [Compound 665],"relative cellular uptake activity of IgE-Alexa488, omalizumab conjugates of Table 15A",Jurkat cells,low activity
O=C(CCOCCOCCOCCN(CCOCCOCCOCCn1cc(CCO[C@H]2O[C@H](CCP(=O)(O)O)[C@@H](O)[C@H](O)[C@@H]2O)nn1)CCOCCOCCOCCn1cc(CCO[C@H]2O[C@H](CCP(=O)(O)O)[C@@H](O)[C@H](O)[C@@H]2O)nn1)Oc1c(F)c(F)c(F)c(F)c1F [Compound 716],"relative cellular uptake activity of IgE-Alexa488, omalizumab conjugates of Table 15A",Jurkat cells,inferior uptake to 520 (I-7) with m=8
CC(=O)N[C@@H](CCCCn1cc(CCCCNC(=O)Nc2ccc(O[C@H]3O[C@H](CCP(=O)(O)O)[C@@H](O)[C@H](O)[C@@H]3O)cc2)nn1)C(=O)N[C@@H](CCCCn1cc(CCCCNC(=O)Nc2ccc(O[C@H]3O[C@H](CCP(=O)(O)O)[C@@H](O)[C@H](O)[C@@H]3O)cc2)nn1)C(=O)NCCOCCOCCOCCOCCC(=O)O [Compound 769],IC50,[1],100 to 500 nM
CC(=O)N[C@@H](CCCCn1cc(CCCCNC(=O)Nc2ccc(O[C@H]3O[C@H](CCP(=O)(O)O)[C@@H](O)[C@H](O)[C@@H]3O)cc2)nn1)C(=O)N[C@@H](CCCCn1cc(CCCCNC(=O)Nc2ccc(O[C@H]3O[C@H](CCP(=O)(O)O)[C@@H](O)[C@H](O)[C@@H]3O)cc2)nn1)C(=O)NCCOCCOCCOCCOCCC(=O)N[C@@H](CCCCn1cc(CCCCNC(=O)Nc2ccc(O[C@H]3O[C@H](CCP(=O)(O)O)[C@@H](O)[C@H](O)[C@@H]3O)cc2)nn1)C(=O)N[C@@H](CCCCn1cc(CCCCNC(=O)Nc2ccc(O[C@H]3O[C@H](CCP(=O)(O)O)[C@@H](O)[C@H](O)[C@@H]3O)cc2)nn1)C(=O)NCCOCCOCCOCCOCCC(=O)O [Compound 770],IC50,[1],≤ 50 nM
CC(=O)N[C@@H](CCCCn1cc(CCCCNC(=O)Nc2ccc(O[C@H]3O[C@H](CCP(=O)(O)O)[C@@H](O)[C@H](O)[C@@H]3O)cc2)nn1)C(=O)NCCOCCOCCOCCOCCC(=O)O [Compound 771],IC50,[1],100 to 500 nM
O=C(O)CCOCCOCCOCCOCCNC(=O)[C@H](CCCCn1cc(CCCCNC(=O)Nc2ccc(O[C@H]3O[C@H](CCP(=O)(O)O)[C@@H](O)[C@H](O)[C@@H]3O)cc2)nn1)NC(=O)[C@H](CCCCn1cc(CCCCNC(=O)Nc2ccc(O[C@H]3O[C@H](CCP(=O)(O)O)[C@@H](O)[C@H](O)[C@@H]3O)cc2)nn1)NC(=O)[C@H](CCCCn1cc(CCCCNC(=O)Nc2ccc(O[C@H]3O[C@H](CCP(=O)(O)O)[C@@H](O)[C@H](O)[C@@H]3O)cc2)nn1)NC(=O)CCCn1cc(CCCCNC(=O)Nc2ccc(O[C@H]3O[C@H](CCP(=O)(O)O)[C@@H](O)[C@H](O)[C@@H]3O)cc2)nn1 [Compound 772],IC50,[1],50 to 100 nM
O=C(CCCn1cc(CCCCNC(=S)Nc2ccc(O[C@H]3O[C@H](CCP(=O)(O)O)[C@@H](O)[C@H](O)[C@@H]3O)cc2)nn1)N[C@@H](CCCCn1cc(CCCCNC(=S)Nc2ccc(O[C@H]3O[C@H](CCP(=O)(O)O)[C@@H](O)[C@H](O)[C@@H]3O)cc2)nn1)C(=O)N[C@@H](CCCCn1cc(CCCCNC(=S)Nc2ccc(O[C@H]3O[C@H](CCP(=O)(O)O)[C@@H](O)[C@H](O)[C@@H]3O)cc2)nn1)C(=O)N[C@@H](CCCCn1cc(CCCCNC(=S)Nc2ccc(O[C@H]3O[C@H](CCP(=O)(O)O)[C@@H](O)[C@H](O)[C@@H]3O)cc2)nn1)C(=O)NCCOCCOCCOCCOCCC(=O)Oc1c(F)c(F)c(F)c(F)c1F [Compound I-52],EC50,"CI-M6PR; Table 16B, antibody conjugate, average loading DAR 6, read-out: EC50 in M6PR binding assay",0.28 nM
"C#CCCCC(=O)Nc1ccc2cc(O[C@H]3O[C@H](CCP(=O)(O)O)[C@@H](O)[C@H](O)[C@@H]3O)ccc2c1 [Compound I-68, (2-((2R,3S,4S,5S,6R)-6-((6-(hex-5-ynamido)naphthalen-2-yl)oxy)-3,4,5-trihydroxytetrahydro-2H-pyran-2-yl)ethyl)phosphonic acid]",IC50,[1],100 to 500 nM
